# According to patent US20230124862A1, “BISMUTH THIOL COMPOUNDS AND COMPOSITIONS AND METHODS OF TREATING MICROBIAL CO-INFECTIONS” (Microbion Corporation, priority 2020, published 2023):
# Like-named read-outs stand apart in the source and are kept apart here.
# Assays:
# [1] = tested on: fungal pathogens; assay: Antifungal activity, NIH/NIAID sponsored study; assay type: cell-based; conditions: 100% endpoint
# [2] = tested on: Burkholderia cepacia complex; assay: Checkerboard FIC/FICI assay; assay type: cell-based, Burkholderia spp.
# [3] = tested on: vancomycin-intermediate Staphylococcus aureus (VISA); assay: Broth microdilution MIC (Example 12); assay type: cell-based; conditions: Staphylococcus aureus, VISA, VISA isolates; read-out: MIC values
# [4] = tested on: P. aeruginosa; assay: Checkerboard FIC/FICI assay; assay type: cell-based, Pseudomonas aeruginosa; conditions: for Drug B MIC: Colistin alone (checkerboard with BisEDT); for FICB / MICB: Colistin in combination with BisEDT, by checkerboard
compound,measurement,setting,value
CC[C@@H]([C@H](C)O)n1ncn(-c2ccc(N3CCN(c4ccc(OC[C@@H]5CO[C@@](Cn6cncn6)(c6ccc(F)cc6F)C5)cc4)CC3)cc2)c1=O [Posaconazole],MIC,"[1]; Paecilomyces variotii, read-out: Antifungal activity, MIC 100%, P. variotii CLSI QC",≤ 0.03 µg/mL
same,MIC,"[1]; Rhizopus arrhizus, read-out: Antifungal activity, MIC 100%, R. arrhizus RA1",4 µg/mL
same,MIC,"[1]; Rhizopus arrhizus, read-out: Antifungal activity, MIC 100%, R. arrhizus RA2",0.06 µg/mL
same,MIC,"[1]; Rhizopus arrhizus, read-out: Antifungal activity, MIC 100%, R. arrhizus RA3",0.125 µg/mL
NC[C@H]1O[C@H](O[C@H]2[C@H](O)[C@@H](O[C@H]3O[C@H](CO)[C@@H](O)[C@H](N)[C@H]3O)[C@H](N)C[C@@H]2N)[C@H](N)C[C@@H]1O [Topramycin],FICB,"[2]; B. cepacia 546, Topramycin in combination with BisEDT, by checkerboard",0.5
"CC(=O)NC[C@H]1CN(c2ccc(N3CCOCC3)c(F)c2)C(=O)O1 [linezolid, reference compound]",MIC,[3],< 4 µg/mL
Colistin,Drug B MIC,[4]; P. aeruginosa 6322,0.5 µg/mL
same,FICB,[4]; P. aeruginosa 6322,1
same,MICB,[4]; P. aeruginosa 6322,0.5 µg/mL
same,Drug B MIC,[4]; P. aeruginosa 6977,1 µg/mL
same,FICB,[4]; P. aeruginosa 6977,1
same,MICB,[4]; P. aeruginosa 6977,1 µg/mL
same,Drug B MIC,[4]; P. aeruginosa 7745,0.5 µg/mL
same,FICB,[4]; P. aeruginosa 7745,1
same,MICB,[4]; P. aeruginosa 7745,0.5 µg/mL
same,Drug B MIC,[4]; P. aeruginosa 9108,0.0005 µg/mL
same,Drug B MIC,[4]; isolate 8798 (organism name not given),>0.256 µg/mL
same,FICB,"[2]; B. multivorans 1795, FIC of Colistin (Drug B) in combination with BisEDT",1
